Measured values: patent US20180042873A1, “NOVEL METHODS” (Aeromics, Inc., priority 2014, published 2018)

Assays:
[1] = test system: cardiac allograft (BalbC donor heart in B6 recipient); assay: Cardiac allograft rejection model (intraabdominal heterotopic vascularized cardiac transplantation between genetically mismatched mice); format: in vivo, mouse; details: for survival after 20 days: BalbC heart into B6, after 20 days; for survival after 50 days: BalbC heart into B6, after 50 days
Method: The ability of an APQ inhibitor of the present disclosure to protect against transplant rejection is determined in an intraabdominal heterotopic vascularized cardiac transplantation model between genetically mismatched mice. Four conditions are compared: the use of an APQ4 inhibitor alone, the use of a CTLA4 Ig alone, the combination of an APQ4 inhibitor with a CTLA4 Ig, and a control.
The donor mouse (BalbC, fully genetically mismatched with respect to the recipient mouse which is B6, C57BL/6) is given a 10 mg/kg IP bolus of 2-((3,5-bis(trifluoromethyl)phenyl)carbamoyl)-4-chlorophenyl dihydrogen phosphate in TrisBase 30 minutes prior to surgery.
Before removing the heart, the donor is perfused with Ringer's solution containing 10 μM N-[3,5-bis(trifluoromethyl)phenyl]-5-chloro-2-hydroxybenzamide. After removal from the donor, the heart is stored at 0-4° C. for 8 hours in Ringer's solution containing 10 μM N-[3,5-bis(trifluoromethyl)phenyl]-5-chloro-2-hydroxybenzamide (Cold Ischemic Storage).
30 Minutes prior to surgery, the recipient mouse is given a 10 mg/kg IP bolus of 2-((3,5-bis(trifluoromethyl)phenyl)carbamoyl)-4-chlorophenyl dihydrogen phosphate in TrisBase. The heart is then transplanted into the recipient mouse (B6 mouse) using the vascularized heterotopic cardiac transplantation model. After closing, the recipient mouse receives 10 mg/kg IP injection of 2-((3,5-bis(trifluoromethyl)phenyl)carbamoyl)-4-chlorophenyl dihydrogen phosphate in TrisBase every 6 hours for 5 days.
The recipient mouse (B6) is administered a single dose of Belatacept IP at 10 mg/kg on the day of the transplant surgery as well as a single dose of Belatacept IP at 10 mg/kg 24 hours after surgery.
As a negative control, both the donor and recipient mice receive IP administration of TrisBase with neither an APQ4 inhibitor nor a CTLA4 Ig. Results
The recipient mice are monitored until their hearts stops beating.

[2] = test system: explanted heart from BALB/c mice; assay: Cardiac explant experiment: apoptosis by Annexin V flow cytometry after 8 h Cold Ischemic Storage; set-up: species or system mouse; details: 10 μM in Ringer's solution, 8 hours cold storage at 0-4° C.
Method: This experiment is a model for determining the extent of apoptosis occurring in an explanted heart from BALB/c mice. Hearts are perfused with Ringer's solution either supplemented with 10 μM of N-[3,5-bis(trifluoromethyl)phenyl]-5-chloro-2-hydroxybenzamide (Compound 1), or without such supplementation. The explanted hearts are then placed in Cold Ischemic Storage (at 0-4° C.) in their respective buffer solutions for 8 hours. The hearts are then photographed and triturated for analysis of apoptosis using Annexin V flow cytometry. Annexin V is used to label phosphatidylserine on the surface of cells, and this is a conventional marker for cells that have undergone apoptosis. […] In contrast, hearts maintained in the APQ4-inhibitor supplemented Ringer's solution show only about 8% apoptotic cells.

O=C(Nc1cc(C(F)(F)F)cc(C(F)(F)F)c1)c1cc(Cl)ccc1OP(=O)(O)O [APQ4 inhibitor, 2-((3,5-bis(trifluoromethyl)phenyl)carbamoyl)-4-chlorophenyl dihydrogen phosphate]
survival after 20 days [1]: about 30%
survival after 50 days [1]: about 10%
survival from about 60 days through the end of monitoring at 120 days ([1]; about 60 days to 120 days): about 5%

O=C(Nc1cc(C(F)(F)F)cc(C(F)(F)F)c1)c1cc(Cl)ccc1O [Compound 1, N-[3,5-bis(trifluoromethyl)phenyl]-5-chloro-2-hydroxybenzamide]
apoptotic cells [2]: about 8%

Belatacept [CTLA4 Ig, reference compound]
survival after 20 days [1]: approximately 60%
survival after 50 days [1]: about 40%
survival from about 60 days through the end of monitoring at 150 days ([1]; about 60 days to 150 days): about 13%
